Patent US8895004B2 (priority 2007, dated 2014)
Like-named read-outs stand apart in the source and are kept apart here.

Columns and labels:
[1] = test system: cells predominantly expressing presynaptic N-type calcium channels; format: cell-based, rat
[2] = test system: hippocampal slice cultures; test: Evoked synaptic transmission in hippocampal slice cultures after overnight incubation; conditions: globulomer approx. 1 μM monomer
[3] = test system: cultured hippocampal neurons; test: sPSC frequency at 1 mM and 4 mM extracellular Ca2+ after Aβ(1-42) globulomer; format: cell-based
Method: Spontaneous synaptic activity was measured in cultured hippocampal neurons using whole-cell voltage clamp techniques (Vhold=−70 mV). Under the ionic conditions used (ECl˜−10 mV) all synaptic events appeared as inward currents.
Currents recorded prior to the addition of the globulomer served as control describing basal synaptic transmission. Currents recorded in the interval immediately after application were analysed with respect to the control data. Afterwards, extracellular Ca^2+ was elevated from 1 mM to 4 mM (leaving the concentration of globulomer unchanged). Currents in the following 5 min recording interval were again analysed with respect to control data.

[4] = test system: cultured hippocampal neurons
[5] = test system: cultured hippocampal neurons; format: cell-based, rat
[6] = biological target: T1, P/Q-type calcium channels (Rattus norvegicus, UniProt P54282); format: cell-based
T1 construct: Typical P/Q channel-mediated currents could be reliably elicited in somatic whole-cell recordings under our culture conditions; endogenous in cells; host or cells: cultured hippocampal neurons
T1 sequence (Q8CFG6 19-1157): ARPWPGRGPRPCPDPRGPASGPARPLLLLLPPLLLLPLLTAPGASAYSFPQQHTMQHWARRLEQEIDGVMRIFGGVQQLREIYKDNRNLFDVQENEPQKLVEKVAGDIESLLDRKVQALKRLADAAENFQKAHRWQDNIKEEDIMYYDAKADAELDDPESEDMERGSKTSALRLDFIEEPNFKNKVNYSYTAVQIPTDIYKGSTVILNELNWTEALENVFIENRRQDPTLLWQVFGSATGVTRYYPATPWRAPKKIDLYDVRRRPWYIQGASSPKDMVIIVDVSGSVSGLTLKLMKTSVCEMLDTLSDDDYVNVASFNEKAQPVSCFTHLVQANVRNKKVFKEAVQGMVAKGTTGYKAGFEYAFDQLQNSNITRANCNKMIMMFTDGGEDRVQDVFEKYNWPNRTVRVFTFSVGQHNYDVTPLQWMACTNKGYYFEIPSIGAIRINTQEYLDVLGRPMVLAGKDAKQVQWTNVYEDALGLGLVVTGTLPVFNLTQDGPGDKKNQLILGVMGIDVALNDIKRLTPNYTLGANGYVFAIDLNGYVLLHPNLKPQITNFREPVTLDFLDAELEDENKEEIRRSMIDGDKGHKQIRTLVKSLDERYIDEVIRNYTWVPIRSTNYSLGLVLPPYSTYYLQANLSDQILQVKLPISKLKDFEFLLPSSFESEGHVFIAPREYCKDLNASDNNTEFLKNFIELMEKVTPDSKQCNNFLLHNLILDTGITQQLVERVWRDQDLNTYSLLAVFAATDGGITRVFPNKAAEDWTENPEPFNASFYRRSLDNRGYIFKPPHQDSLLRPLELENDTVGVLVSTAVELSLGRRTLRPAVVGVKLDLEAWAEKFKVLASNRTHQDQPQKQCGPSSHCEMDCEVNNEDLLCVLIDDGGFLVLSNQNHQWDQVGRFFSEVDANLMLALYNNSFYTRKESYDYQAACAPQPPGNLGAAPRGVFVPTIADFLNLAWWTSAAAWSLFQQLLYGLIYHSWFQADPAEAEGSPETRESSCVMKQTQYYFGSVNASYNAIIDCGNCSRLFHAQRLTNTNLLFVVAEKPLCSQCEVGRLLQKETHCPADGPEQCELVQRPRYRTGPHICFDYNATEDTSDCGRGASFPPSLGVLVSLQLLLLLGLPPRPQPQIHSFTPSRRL
T1 sequence (P54282 whole entry): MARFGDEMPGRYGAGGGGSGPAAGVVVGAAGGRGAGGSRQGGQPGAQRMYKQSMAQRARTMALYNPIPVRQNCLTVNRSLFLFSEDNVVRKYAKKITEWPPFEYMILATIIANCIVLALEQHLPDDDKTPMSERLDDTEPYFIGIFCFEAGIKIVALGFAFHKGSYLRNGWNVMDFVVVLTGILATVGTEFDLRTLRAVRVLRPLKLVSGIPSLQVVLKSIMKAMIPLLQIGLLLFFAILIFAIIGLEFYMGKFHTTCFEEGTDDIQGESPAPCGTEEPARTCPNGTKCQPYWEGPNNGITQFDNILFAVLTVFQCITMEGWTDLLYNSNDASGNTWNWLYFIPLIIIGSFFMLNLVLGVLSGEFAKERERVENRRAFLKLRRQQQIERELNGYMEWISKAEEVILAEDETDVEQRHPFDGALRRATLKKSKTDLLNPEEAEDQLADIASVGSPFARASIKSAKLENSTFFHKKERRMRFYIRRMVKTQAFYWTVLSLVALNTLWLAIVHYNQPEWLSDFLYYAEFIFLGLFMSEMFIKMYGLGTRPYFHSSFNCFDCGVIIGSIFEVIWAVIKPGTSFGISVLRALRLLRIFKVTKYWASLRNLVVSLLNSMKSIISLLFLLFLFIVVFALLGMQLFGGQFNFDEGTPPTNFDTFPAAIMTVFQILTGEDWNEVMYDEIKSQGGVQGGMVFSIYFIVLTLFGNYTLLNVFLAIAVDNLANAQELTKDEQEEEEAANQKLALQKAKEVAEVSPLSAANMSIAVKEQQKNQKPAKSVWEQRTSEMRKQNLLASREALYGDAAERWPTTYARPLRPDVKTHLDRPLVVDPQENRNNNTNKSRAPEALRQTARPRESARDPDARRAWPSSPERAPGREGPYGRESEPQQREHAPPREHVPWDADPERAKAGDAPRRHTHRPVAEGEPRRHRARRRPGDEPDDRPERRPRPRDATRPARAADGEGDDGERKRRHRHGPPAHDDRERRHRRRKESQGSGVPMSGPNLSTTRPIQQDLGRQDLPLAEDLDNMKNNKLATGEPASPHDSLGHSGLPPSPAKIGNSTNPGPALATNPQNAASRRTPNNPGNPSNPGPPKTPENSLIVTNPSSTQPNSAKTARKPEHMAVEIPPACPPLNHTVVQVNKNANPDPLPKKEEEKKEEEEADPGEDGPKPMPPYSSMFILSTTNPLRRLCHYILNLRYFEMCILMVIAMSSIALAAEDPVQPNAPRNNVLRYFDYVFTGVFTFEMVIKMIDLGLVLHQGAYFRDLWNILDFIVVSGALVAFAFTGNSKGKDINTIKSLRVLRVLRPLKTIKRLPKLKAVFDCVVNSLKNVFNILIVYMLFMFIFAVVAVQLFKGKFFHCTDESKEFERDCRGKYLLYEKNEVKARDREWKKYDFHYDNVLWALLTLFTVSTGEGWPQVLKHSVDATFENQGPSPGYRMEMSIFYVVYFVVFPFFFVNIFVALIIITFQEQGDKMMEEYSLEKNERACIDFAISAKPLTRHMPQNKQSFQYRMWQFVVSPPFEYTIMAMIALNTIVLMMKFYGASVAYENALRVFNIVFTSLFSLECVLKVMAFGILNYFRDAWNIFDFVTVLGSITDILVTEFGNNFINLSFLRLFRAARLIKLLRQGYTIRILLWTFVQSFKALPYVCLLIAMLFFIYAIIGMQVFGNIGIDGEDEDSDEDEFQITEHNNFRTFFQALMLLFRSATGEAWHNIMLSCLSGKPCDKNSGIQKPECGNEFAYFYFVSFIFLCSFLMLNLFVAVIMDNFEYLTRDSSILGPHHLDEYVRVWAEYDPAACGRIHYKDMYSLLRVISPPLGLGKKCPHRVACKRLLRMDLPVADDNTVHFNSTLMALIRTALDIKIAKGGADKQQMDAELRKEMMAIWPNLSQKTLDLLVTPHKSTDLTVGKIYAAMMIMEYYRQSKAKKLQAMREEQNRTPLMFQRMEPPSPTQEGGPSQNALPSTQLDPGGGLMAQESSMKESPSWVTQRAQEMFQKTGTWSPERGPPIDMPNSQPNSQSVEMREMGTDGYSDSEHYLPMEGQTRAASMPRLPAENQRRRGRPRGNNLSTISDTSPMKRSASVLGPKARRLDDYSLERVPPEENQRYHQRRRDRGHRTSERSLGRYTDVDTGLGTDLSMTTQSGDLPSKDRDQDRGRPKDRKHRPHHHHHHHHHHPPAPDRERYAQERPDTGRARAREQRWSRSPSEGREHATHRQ
T1 sequence (P54283 whole entry, further chain): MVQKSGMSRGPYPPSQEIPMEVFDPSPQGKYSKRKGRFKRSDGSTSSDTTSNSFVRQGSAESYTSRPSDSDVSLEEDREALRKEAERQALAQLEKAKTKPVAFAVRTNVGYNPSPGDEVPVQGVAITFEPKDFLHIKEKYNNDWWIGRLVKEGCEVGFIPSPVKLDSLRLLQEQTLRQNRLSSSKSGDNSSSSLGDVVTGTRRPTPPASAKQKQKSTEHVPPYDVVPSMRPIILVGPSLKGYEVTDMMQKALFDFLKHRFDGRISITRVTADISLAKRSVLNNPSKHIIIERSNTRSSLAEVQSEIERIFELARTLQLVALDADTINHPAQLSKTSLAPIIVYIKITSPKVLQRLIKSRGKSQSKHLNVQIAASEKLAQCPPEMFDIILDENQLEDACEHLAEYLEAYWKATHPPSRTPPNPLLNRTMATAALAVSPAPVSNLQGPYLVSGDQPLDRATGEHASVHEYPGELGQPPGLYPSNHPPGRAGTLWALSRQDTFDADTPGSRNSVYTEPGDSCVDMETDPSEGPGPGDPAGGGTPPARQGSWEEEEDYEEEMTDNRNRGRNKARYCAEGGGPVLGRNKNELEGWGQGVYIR

[7] = test system: hippocampal slice; test: Spontaneous synaptic currents in acute hippocampal slice, CA1 pyramidal cells; format: cell-based; conditions: mouse slice
Method: 400 μm thick slices were prepared from freshly dissected hippocampi of the mouse using a method known per se (Dingledine R. Brain Slices. New York: Plenum Press, 1983).

[8] = test system: L-type calcium currents; format: cell-based, rat
[9] = test system: GABAA receptors; format: cell-based, rat
[10] = globulomer, after elevation of Ca2+ to 4 mM

Q: How did the “spontaneous synaptic activity (frequency and amplitude) in N-dominated cells” value [1] turn out when “Aβ(1-42) globulomer: soluble, globular, non-covalent association of Aβ(1-42) peptides, apparent molecular weight 38/48 kDa, obtained as in Example 6b of WO2004/067561” was run?
A: does not impair spontaneous synaptic activity

Q: What about the evoked synaptic transmission [2] of the same substance?
A: strongly suppresses synaptic transmission

Q: And the “median amplitude of sPSCs” value ([3]; 1 mM Ca2+, globulomer)?
A: 97±5%

Q: And the sPSC frequency ([3]; 1 mM Ca2+, globulomer approx. 1 μM monomer)?
A: 63±7 % of control

Q: What about the “median amplitude of sPSCs” value [3, 10] of the same substance?
A: 98±6%

Q: And the sPSC frequency [3, 10]?
A: 77±13 % of control

Q: And the “amplitude of mEPSCs” value [4]?
A: 96±3 % of control

Q: What about the “amplitude of spontaneous EPSCs” value [4] of the same substance?
A: 79±4 % of control

Q: What about the “amplitude of spontaneous EPSCs during washout” value [4] of the same substance?
A: 96±6%

Q: What about the “amplitude of spontaneous IPSCs after withdrawal” value [4] of the same substance?
A: 94±2%

Q: What about the “amplitude of synaptic currents after pre-incubation with ω-Agatoxin IVA” value [4] of the same substance?
A: 102±7

Q: And the “frequency of mIPSCs” value [4]?
A: 52±10 % of control

Q: And the “frequency of mIPSCs after washout” value [4]?
A: 68±12 % of control

Q: What about the “frequency of mPSCs” value [4] of the same substance?
A: 56±9 % of control

Q: What about the “frequency of mPSCs after washout” value [4] of the same substance?
A: 77±7.6 % of control

Q: And the “frequency of miniature EPSCs” value [4]?
A: 57±9 % of control

Q: What about the “frequency of miniature EPSCs after wash-out” value [4] of the same substance?
A: 54±8%

Q: What about the “frequency of sPSCs after washout” value [4] of the same substance?
A: 61±16%

Q: What about the “frequency of spontaneous EPSCs” value [4] of the same substance?
A: 14±4 % of control

Q: What about the “frequency of spontaneous EPSCs during washout” value [4] of the same substance?
A: 52±19 % of control

Q: And the “frequency of spontaneously occurring IPSCs” value [4]?
A: 64±5 % of control

Q: And the “frequency of synaptic currents after pre-incubation with ω-Agatoxin IVA” value [4]?
A: 108±15%

Q: And the mIPSC amplitude [4]?
A: 81±6 % of control

Q: And the “mIPSC amplitude after washout” value [4]?
A: 85±6%

Q: And the “median amplitude of mPSCs” value [4]?
A: 30.2±5.2 pA

Q: What about the “median amplitude of spontaneous IPSCs” value [4] of the same substance?
A: 82±2 % of control

Q: What about the “amplitude of the AP (baseline to peak)” value [5] of the same substance?
A: 110.9±16.7 mV

Q: What about the half-width time [5] of the same substance?
A: 4.0 ± 2.9 ms

Q: And the input resistance [5]?
A: 131.6±13.7 MΩ

Q: And the “maximal rate of repolarization” value [5]?
A: 47.4±19.3 V/s

Q: What about the “maximal rate of rise” value [5] of the same substance?
A: 84.2±50.0 V/s

Q: What about the threshold for firing [5] of the same substance?
A: −24.2±9.8 mV

Q: And the “amplitude of P/Q-type currents” value [6]?
A: 62±7 % of control

Q: What about the “maximal conductance (gmax)” value [6] of the same substance?
A: 27.2±3.2 nS

Q: What about the “reversibility of P/Q-type current reduction” value [6] of the same substance?
A: partially reversible

Q: What about the “slope Vc of steady-state activation” value [6] of the same substance?
A: −10.8±0.5 mV

Q: What about the “slope Vc of steady-state inactivation” value [6] of the same substance?
A: −12.6±1.1 mV

Q: And the “steady-state activation Vh” value [6]?
A: −17.3±1.3 mV

Q: And the “voltage at half-maximal inactivation” value [6]?
A: 32.4±1.2 mV

Q: And the “inhibition mechanism in hippocampal slice” value [7]?
A: also valid in situ

Q: What about the “L-type calcium current amplitude” value [8] of the same substance?
A: 573.0±225.6 pA

Q: And the GABA-induced inward currents [9]?
A: unaltered

Q: With “monomeric Aβ(1-42): synthetic monomeric Aβ(1-42) peptide (H-1368; Bachem) dissolved in 0.1% NaOH; likely a mixture of aggregation states” as the substance, how does the “frequency of mPSCs” value ([4]; 1 μM monomer, TTX) read?
A: 87±3 % of control

Q: And the “median amplitude of mPSCs” value ([4]; 1 μM monomer, TTX)?
A: 33.7±3.0 pA

Q: “ω-agatoxin IVA (KKKCIAKDYGRCKWGGTPCCRGRGCICSIMGTNCECKPRLIMEGLGLA)” was tested. Which “spontaneous synaptic activity (frequency and amplitude) in N-dominated cells” value [1] did it give?
A: does not impair spontaneous synaptic activity
